Assay type in all cases: cell-based
One assay relates to Jurkat. Put plainly: calcium mobilization (FLIPR, Fluo-3) in Jurkat. Here is the method: (§1) The above panel of 10 cell lines was plated in 96-well black, clear-bottomed tissue culture-treated plates (Molecular Devices, Sunnyvale, Calif. with the number of cells per well indicated in Table 1. Cells were maintained overnight at 37° C., 5%CO2 in a humidified incubator. Media was removed and the cells were then incubated in Hanks balanced salt solution (Invitrogen, Carlsbad Calif.)/10 mM HEPES pH 7.4 containing 0.04% Pluronic Acid (Molecular Probes, Eugene Oreg.) and 4 uM Fluor-3AM (Molecular Probes, Eugene Oreg.) for one hour at 37° C.
(§2) Antagonists were added to the indicated concentration and the cells incubated at room temperature for 20 minutes. After 10 seconds of baseline read collection, agonists were added on a FLIPR instrument (Molecular Devices, Sunnyvale, Calif.) and data were collected for a total of 3.5 minutes. The fluorescence emission was normalized to initial intensity and the sum of the signal over the entire time period was exported and used for determining percent of control responses using the following formula: Percent of Control=(Sample-unstimulated cells)/(ionomycin treated cells-unstimulated cells). […] Calcium mobilization was measured as described above. […]
(Calcium assays in cells follow changes in intracellular calcium, usually with a dye or a luminescent sensor.)

A further assay relates to PANC-1. Put plainly: calcium mobilization (FLIPR, Fluo-3) in PANC-1. The protocol: as §1, §2
A further assay has as its system T-47D. Briefly: calcium mobilization (FLIPR, Fluo-3) in T-47D. The following applies: for calcium mobilization, Percent of Control: T-47D; for effect on the response to ionomycin in T-47D cells: antagonist at 10 uM, cells do not express the H1 receptor. The protocol: as §1
(§3) Antagonists were added to the indicated concentration and the cells incubated at room temperature for 20 minutes. After 10 seconds of baseline read collection, agonists were added on a FLIPR instrument (Molecular Devices, Sunnyvale, Calif.) and data were collected for a total of 3.5 minutes. The fluorescence emission was normalized to initial intensity and the sum of the signal over the entire time period was exported and used for determining percent of control responses using the following formula: Percent of Control=(Sample-unstimulated cells)/(ionomycin treated cells-unstimulated cells). […] Calcium mobilization was measured as described above.
(§4) Expression of the target H1 receptor was measured by RT-PCR of mRNA samples from each cell line, as follows.

A further assay has as its system HBL-100. Briefly: calcium mobilization (FLIPR, Fluo-3) in HBL-100. The following applies: for calcium mobilization, Percent of Control: HBL-100; for effect on responses to bradykinin in HBL-100 cells: antagonist at 10 uM. Here is the method: as §1, §2
In the next assay the test system is COLO320. Briefly: calcium mobilization (FLIPR, Fluo-3) in COLO320. The protocol:
as §1, §3, §4

The test system of a further assay is panel of 10 cell lines. Put plainly: calcium mobilization profile across the panel of 10 cell lines. The conditions noted are these: for effect on calcium responses to histamine: histamine-induced calcium mobilization, panel of 10 cell lines, antagonist 1 or 10 uM. Here is the method:
as §1, §3, §4

The test system of another assay is PC-3. Briefly: calcium mobilization (FLIPR, Fluo-3) in PC-3. The protocol: as §1, §2
The subject of the next assay is NCI-H460. Put plainly: calcium mobilization (FLIPR, Fluo-3) in NCI-H460. Here is the method:
as §1, §2

The subject of another assay is NTera-2. Put plainly: calcium mobilization (FLIPR, Fluo-3) in NTera-2. The following applies: for calcium mobilization, Percent of Control: NTera-2; for effect on the response to ionomycin in NTera-2 cells: antagonist at 10 uM, cells do not express the H1 receptor. Here is the method: as §1, §2
Another assay has as its system SaOS-2. Put plainly: calcium mobilization (FLIPR, Fluo-3) in SaOS-2. The following applies: for calcium mobilization, Percent of Control: SaOS-2; for effect on responses to bradykinin in SaOS-2 cells: antagonist at 10 uM. Here is the method:
as §1, §2

The subject of the next assay is SK-Hep-1. Briefly: calcium mobilization (FLIPR, Fluo-3) in SK-Hep-1. The following applies: agonist alone (buffer), 10 uM, 100 = 10 uM ionomycin. The protocol:
as §1, §3

The mark [1] stands for this setting: response to 1 uM bradykinin after antagonist 10 uM.
Where [2] appears, read: response to 10 uM histamine after antagonist 10 uM, 20 min.
[3] abbreviates: response to 10 uM ionomycin after antagonist 10 uM.
Where [4] appears, read: agonist alone (buffer), 10 uM, 100 = 10 uM ionomycin.

The structures appear in SMILES notation. Values joined by “and” are separate entries in the source; they are usually repeats but may differ in a detail not shown here. Identical values can stand only once.

With `CN(C)CCC(c1ccc(Cl)cc1)c1ccccn1` (stereo not shown) [Compound C1PhAm, chlorpheniramine], the “calcium mobilization, Percent of Control” value with Jurkat (setting [1]) was 12% of Control and 10% of Control; with Jurkat (setting [2]), 8% of Control and 5% of Control; in the assay on Jurkat (setting [3]), 70% of Control and 123% of Control; in the assay on PANC-1 (setting [3]), 101% of Control and 104% of Control; with T-47D (setting [3]) it was 102% of Control; in the assay on HBL-100 (setting [1]) it was 11% of Control. In addition, the “calcium mobilization, Percent of Control” value is 0% of Control in the assay on HBL-100 (setting [2]); 87% of Control in the assay on HBL-100 (setting [3]); 0% of Control in the assay with COLO320 (setting [1]); 98% of Control and 95% of Control with COLO320 (setting [3]); 0% of Control in the assay with PC-3 (setting [1]); 0% of Control in the assay with PC-3 (setting [2]). The “calcium mobilization, Percent of Control” value was 104% of Control in the assay with PC-3 (setting [3]); 73% of Control and 96% of Control in the assay with NCI-H460 (setting [3]); 0% of Control with NTera-2 (setting [2]); 99% of Control and 119% of Control in the assay with NTera-2 (setting [3]); 29% of Control and 23% of Control with SaOS-2 (setting [1]); 96% of Control and 112% of Control in the assay on SaOS-2 (setting [3]). Further, the “effect on the response to ionomycin in T-47D cells” value with T-47D is given as “does not affect the ionomycin response”. Moreover, in the assay on HBL-100, the “effect on responses to bradykinin in HBL-100 cells” value is listed as “does not”. Besides, the “effect on calcium responses to bradykinin” value in the assay with panel of 10 cell lines (bradykinin-induced, antagonist at 10 uM) is on record as “did not inhibit bradykinin responses”. Also, the “effect on calcium responses to histamine” value in the assay on panel of 10 cell lines is recorded as “had similar effects to Compound 1”. Further, the “effect on the response to ionomycin in NTera-2 cells” value in the assay with NTera-2 is given as “does not affect the ionomycin response”. Further, in the assay on SaOS-2, the “effect on responses to bradykinin in SaOS-2 cells” value is on record as “does not”.

For `COc1ccc2c(c1)CC[C@@H]1[C@@H]2CC[C@]2(C)[C@@H](NCCCCCCN3C(=O)C=CC3=O)CC[C@@H]12` [Compound U73122, U73122], the “calcium mobilization, Percent of Control” value in the assay on Jurkat (setting [1]) is 52% of Control; in the assay with Jurkat (setting [2]) it was 2% of Control; in the assay on Jurkat (setting [3]), 52% of Control; in the assay on PANC-1 (setting [1]) it was 0% of Control; in the assay on PANC-1 (setting [2]) it was 2% of Control; with PANC-1 (setting [3]), 89% of Control. For the same compound, the “calcium mobilization, Percent of Control” value with T-47D (setting [1]) is on record as 1% of Control; with T-47D (setting [2]), 1% of Control; with T-47D (setting [3]) it was 88% of Control; in the assay on COLO320 (setting [1]), 5% of Control; in the assay on COLO320 (setting [2]), 2% of Control; in the assay with COLO320 (setting [3]), 73% of Control. In addition, the “calcium mobilization, Percent of Control” value is 0% of Control in the assay on PC-3 (setting [1]); 0% of Control with PC-3 (setting [2]); 100% of Control in the assay with PC-3 (setting [3]); 1% of Control with NCI-H460 (setting [1]); 2% of Control in the assay with NCI-H460 (setting [2]); 102% of Control with NCI-H460 (setting [3]). In addition, the “calcium mobilization, Percent of Control” value is 1% of Control in the assay with NTera-2 (setting [1]); 2% of Control in the assay with NTera-2 (setting [2]); 72% of Control with NTera-2 (setting [3]); 2% of Control with SaOS-2 (setting [1]); 0% of Control in the assay on SaOS-2 (setting [2]); 71% of Control in the assay on SaOS-2 (setting [3]). Besides, the “effect on the response to ionomycin in T-47D cells” value in the assay with T-47D is given as “partially inhibit the response to ionomycin”. Further, the “effect on responses to bradykinin in HBL-100 cells” value in the assay on HBL-100 is reported as “inhibits the responses”. The “specificity as inhibitor of histamine signaling through the H1 receptor” value in the assay with panel of 10 cell lines (compared with chlorpheniramine) is listed as “less specific than chlorpheniramine”. Besides, the “effect on calcium responses to histamine” value with panel of 10 cell lines is listed as “inhibit responses to histamine”. The “effect on the response to ionomycin in NTera-2 cells” value in the assay with NTera-2 was “partially inhibit the response to ionomycin”. Besides, the “effect on responses to bradykinin in SaOS-2 cells” value with SaOS-2 is on record as “inhibits the responses”.

As to `CNCCc1cnc[nH]1` [N-a-his, N-alphamethyl histamine], the “calcium mobilization, Percent of Control” value in the assay with Jurkat (setting [4]) is 2% of Control; in the assay on PANC-1 (setting [4]), 22% of Control; with T-47D (setting [4]) it was 0% of Control; in the assay on SK-Hep-1, 12% of Control; with HBL-100 (setting [4]), 16% of Control; with COLO320 (setting [4]), 1% of Control. For the same compound, the “calcium mobilization, Percent of Control” value with PC-3 (setting [4]) was 1% of Control; in the assay with NCI-H460 (setting [4]), 30% of Control; in the assay with NTera-2 (setting [4]), 2% of Control; with SaOS-2 (setting [4]), 11% of Control. Also, the “activity in cells that do not express the H1 receptor target” value in the assay with panel of 10 cell lines (agonist example, 10 uM) was “Neither Compound 1 nor histamine were active”.

Take `C[C@@H](N)Cc1c[nH]cn1` [R-a-his, R-alphamethyl histamine]: the “calcium mobilization, Percent of Control” value with Jurkat (setting [4]) is given as 2% of Control; with PANC-1 (setting [4]), 0% of Control; in the assay on T-47D (setting [4]), 0% of Control; in the assay with SK-Hep-1, −1% of Control; in the assay with HBL-100 (setting [4]) it was −1% of Control; in the assay on COLO320 (setting [4]), 1% of Control. In addition, the “calcium mobilization, Percent of Control” value in the assay on PC-3 (setting [4]) was 0% of Control; in the assay on NCI-H460 (setting [4]), 0% of Control; with NTera-2 (setting [4]), 2% of Control; in the assay with SaOS-2 (setting [4]), 0% of Control. In addition, in the assay on panel of 10 cell lines (agonist example, 10 uM, 10 cell lines), the “pattern of calcium responses compared with histamine and bradykinin” value is recorded as “resembles neither bradykinin nor histamine”.

Regarding `NCCc1c[nH]cn1` [histamine], the “calcium mobilization, Percent of Control” value in the assay with PANC-1 (setting [4]) is 26% of Control and 30% of Control; in the assay with SK-Hep-1, 19% of Control; in the assay on HBL-100 (setting [4]) it was 18% of Control and 27% of Control; in the assay with PC-3 (setting [4]) it was 1% of Control; in the assay on NCI-H460 (setting [4]), 32% of Control and 24% of Control; with NTera-2 (setting [4]), 0% of Control. For the same compound, the “calcium mobilization, Percent of Control” value in the assay on SaOS-2 (setting [4]) is 13% of Control and 18% of Control. In the assay with panel of 10 cell lines (agonist example, 10 uM), the “activity in cells that do not express the H1 receptor target” value is “Neither Compound 1 nor histamine were active”.

Regarding `C[C@H](CCC(=O)O)C[C@H](C)C[C@H](C)C(=O)/C=C(\O)[C@H](C)C[C@H](C)C/C=C/[C@@H](C)[C@@H](O)[C@@H](C)[C@@H](O)C[C@@H]1CC[C@@](C)([C@H]2CC[C@@](C)([C@@H](C)O)O2)O1` [ionomycin], the “calcium mobilization, Percent of Control” value with Jurkat (setting [4]), in the assay on PANC-1 (setting [4]), in the assay with T-47D (setting [4]), in the assay on SK-Hep-1, in the assay on HBL-100 (setting [4]) and in the assay on COLO320 (setting [4]) was 100% of Control in each case. Moreover, the “calcium mobilization, Percent of Control” value in the assay on PC-3 (setting [4]), with NCI-H460 (setting [4]), in the assay on NTera-2 (setting [4]) and with SaOS-2 (setting [4]) was 100% of Control in each case.

The values above are taken from US20030100997A1, “Matrix assays in genomically indexed cells” (priority 2001, published 2003).
